We go through five compounds from publication PMC11050599, “Novel Tetracyclic Azaphenothiazines with the Quinoline Ring as New Anticancer and Antibacterial Derivatives of Chlorpromazine” (International Journal of Molecular Sciences, 2024).

For orientation: IC50 means the concentration needed to halve the response being measured. One may read the MIC as the lowest concentration found to suppress growth.

In one experiment the test system is S. aureus ATCC 6538. The experiment can be described thus: MIC broth microdilution. The class given is cell-based. The settings on record: 19 h, 35 °C; for MIC: Staphylococcus aureus, ATCC6538, read-out: MIC S. aureus ATCC 6538. An excerpt:
(§1) To evaluate the antibacterial effectiveness of chloroquinobenzothiazine derivatives, various bacterial strains from international microbe collections such as the American Type Culture Collection (ATCC) and the National Collection of Type Culture (NCTC) were examined, alongside a panel of clinical rods. This included two Gram-negative organisms, E. coli ATCC 25922 and P. aeruginosa ATCC 15442, and a series of six Gram-positive strains: S. aureus NCTC 4163; S. aureus ATCC 29213, 25923, and 6538; and S. epidermidis ATCC 12228 and 35984. […] The MIC was determined using the two-fold serial broth microdilution method in 96-well microtitration plates containing Mueller-Hinton II broth medium (Becton Dickinson, Franklin Lakes, NJ, USA). The final inoculum for all tested bacteria was adjusted to […] (colony-forming units per milliliter). The stock solution of the tested compounds was prepared in dimethyl sulfoxide (DMSO) and diluted to a maximum of 1% solvent content with a sterile medium.
(Dilution methods test growth across graded concentrations, often in twofold steps.)

Another experiment concerns E. coli ATCC 25922. The experiment can be described thus: MIC broth microdilution. The following applies: 19 h, 35 °C; for MIC: Escherichia coli, ATCC25922, read-out: MIC E. coli ATCC 25922. The class given is cell-based.
From the text: as §1

For a further experiment, the system named is S. aureus ATCC 25923. Nature of the experiment: MIC broth microdilution. The settings on record: 19 h, 35 °C; for MIC: Staphylococcus aureus, ATCC25923, read-out: MIC S. aureus ATCC 25923. The class given is cell-based.
From the text: as §1

Experiment [1] concerns S. epidermidis ATCC 35984. The experiment can be described thus: MIC broth microdilution. The class given is cell-based. The settings on record: 19 h, 35 °C; for MIC: Staphylococcus epidermidis, ATCC35984, read-out: MIC S. epidermidis ATCC 35984.
From the text: as §1

For another experiment, the system named is S. aureus NCTC 4163. The experiment can be described thus: MIC broth microdilution. The following applies: 19 h, 35 °C; for MIC: Staphylococcus aureus, NCTC4163, read-out: MIC S. aureus NCTC 4163. The class given is cell-based.
From the text: as §1

The test system of the next experiment is P. aeruginosa ATCC 15442. Nature of the experiment: MIC broth microdilution. The settings on record: 19 h, 35 °C; for MIC: Pseudomonas aeruginosa, ATCC15442, read-out: MIC P. aeruginosa ATCC 15442. Type of experiment: cell-based.
From the text: as §1

For experiment [2], the system named is S. epidermidis ATCC 12228. Nature of the experiment: MIC broth microdilution. Type of experiment: cell-based. The following applies: 19 h, 35 °C; for MIC: Staphylococcus epidermidis, ATCC12228, read-out: MIC S. epidermidis ATCC 12228.
From the text: as §1

In another experiment the test system is S. aureus ATCC 29213. Nature of the experiment: MIC broth microdilution. Type of experiment: cell-based. The following applies: 19 h, 35 °C; for MIC: Staphylococcus aureus, ATCC29213, read-out: MIC S. aureus ATCC 29213.
From the text: as §1

Another experiment concerns A549 (lung cancer). Nature of the experiment: MTT assay, A549 cells. Type of experiment: cell-based, human. The following applies: for IC50: MTT, 72 h, mean SD, read-out: IC50 A549; for SI A549: SI = IC50 for normal cell line (HaCaT)/IC50 cancer cell line. The procedure: (§2) The human cell lines, such as A549 (lung cancer), MDA-MB-231 (breast cancer), MiaPaca-2 (pancreatic cancer), PC3 (metastatic prostate cancer), HCT-116 (colon carcinoma), and HaCaT (immortalized keratinocytes), were sourced from the American Type Culture Collection (ATCC) in Rockville, USA. Culturing conditions varied as follows: HCT116 cells were cultured in MEM (ThermoSci, Waltham, MA, USA), A549, MDA-MB-231, MiaPaca, HaCaT cells in DMEM High Glucose and PC3 cells were cultured in RPMI (Biowest SAS, Nuaillé, France). The growth medium consisted of 10% fetal bovine serum (FBS, Sigma-Aldrich, St. Louis, MO, USA), 20 mM HEPES (Biowest, Nuaillé, France), and antibiotics (100 U/mL of penicillin and 100 μg/mL of streptomycin) from Gibco, Grand Island, NY, USA. […] These compounds were added to 96-well plates containing study cells (1 × 10^4 cells per well) and incubated for 72 h. […] Cell absorbance results were incorporated into the formula for calculating the relative MTT level (%), enabling the assessment of cell viability following exposure to the test compounds. The cell viability percentage represents the MTT reduction in cells treated with the test compounds compared to the control sample, where only the medium was added to the cells.
(Formazan colour is commonly taken as a measure of viable cells.)

Experiment [3] concerns HaCaT (immortalized human keratinocytes). The experiment can be described thus: MTT assay, HaCaT normal cells. The class given is cell-based. The following applies: MTT, 72 h, normal cells, read-out: IC50 HaCaT (Table 3). The method, then: as §2
Experiment [4] deals with MDA-MB-231 (breast cancer). The experiment can be described thus: MTT assay, MDA-MB-231 cells. Type of experiment: cell-based, human. The settings on record: for IC50: MTT, 72 h, MDA-MB231, read-out: IC50 MDA; for SI MDA: SI = IC50 for normal cell line (HaCaT)/IC50 cancer cell line. The method, then:
as §2

In brackets after ≈: the same amount, converted by molar mass. Like-named read-outs stand apart in the source and are kept apart here.

Take “8-Chloro-6-[(1-(4-chlorobenzyl)-1H-1,2,3-triazol-4-yl)methyl]-quinobenzo[1,4]thiazine [Compound 31]”: the “MIC S. aureus ATCC 6538” value in the experiment with S. aureus ATCC 6538 is >256 µg/mL. The “MIC E. coli ATCC 25922” value in the experiment on E. coli ATCC 25922 was >256 µg/mL. In the experiment with S. aureus ATCC 25923, the “MIC S. aureus ATCC 25923” value is >256 µg/mL. Further, the “MIC S. epidermidis ATCC 35984” value in [1] was >256 µg/mL. Besides, the “MIC S. aureus NCTC 4163” value against S. aureus NCTC 4163 is >256 µg/mL. In addition, the “MIC P. aeruginosa ATCC 15442” value in the experiment with P. aeruginosa ATCC 15442 is >256 µg/mL. The “MIC S. epidermidis ATCC 12228” value in experiment [2] is >256 µg/mL. Besides, the “MIC S. aureus ATCC 29213” value against S. aureus ATCC 29213 was >256 µg/mL. In addition, the concentration for half-maximal inhibition (IC50) (in the experiment on A549 (lung cancer); in experiment [3]; in experiment [4]) was > 100 µM in each case. Moreover, in the experiment on A549 (lung cancer), the “SI A549” value worked out at 1.0. For the same compound, the “SI MDA” value in [4] was 1.0.
As for “8-Chloro-6-[(1-benzyl-1H-1,2,3-triazol-4-yl)-methyl]-quinobenzo[1,4]thiazine [Compound 29]”, the “MIC S. aureus ATCC 6538” value in the experiment with S. aureus ATCC 6538 is >256 µg/mL. Further, the “MIC E. coli ATCC 25922” value in the experiment with E. coli ATCC 25922 was >256 µg/mL. The “MIC S. aureus ATCC 25923” value against S. aureus ATCC 25923 is >256 µg/mL. Besides, the “MIC S. epidermidis ATCC 35984” value in experiment [1] is >256 µg/mL. In addition, the “MIC S. aureus NCTC 4163” value in the experiment with S. aureus NCTC 4163 is >256 µg/mL. In the experiment with P. aeruginosa ATCC 15442, the “MIC P. aeruginosa ATCC 15442” value is >256 µg/mL. In addition, the “MIC S. epidermidis ATCC 12228” value in experiment [2] is >256 µg/mL. Besides, in the experiment on S. aureus ATCC 29213, the “MIC S. aureus ATCC 29213” value was >256 µg/mL. Further, the IC50 (with A549 (lung cancer); in experiment [3]; in experiment [4]) was > 100 µM in each case. Also, the “SI A549” value in the experiment with A549 (lung cancer) is listed as 1.0. In addition, the “SI MDA” value in [4] amounted to 1.0.
For `CCN(CC)CCN1c2cc(Cl)ccc2Sc2cc3ccccc3nc21` [Compound 7, 2-(8-Chloroquino[3,2-b]benzo[1,4]thiazin-6-yl)-N,N-diethylethan-1-amine], the minimal inhibitory concentration (MIC) in the experiment on S. aureus ATCC 6538 is 8 µg/mL (≈ 20.8 µM); in the experiment with E. coli ATCC 25922, > 256 µg/mL; with S. aureus ATCC 25923, 8 µg/mL (≈ 20.8 µM); in experiment [1] it was 8 µg/mL (≈ 20.8 µM); in the experiment with S. aureus NCTC 4163 it was 8 µg/mL (≈ 20.8 µM); in the experiment with P. aeruginosa ATCC 15442, > 256 µg/mL. The MIC (in experiment [2]; with S. aureus ATCC 29213) was 8 µg/mL (≈ 20.8 µM) each time. Moreover, the concentration for half-maximal inhibition (IC50) in the experiment with A549 (lung cancer) (Homo sapiens, A549) is 27.2 ± 8.4 µM; in experiment [3] (Homo sapiens, HaCaT), > 100 µM; in experiment [4] (Homo sapiens, MDA-MB-231), > 100 µM. In the experiment on A549 (lung cancer), the “SI A549” value is 3.7. For the same compound, in experiment [4], the “SI MDA” value is on record as 1.0.
Regarding `Clc1ccc2c(c1)N(CCN1CCCCC1)c1nc3ccccc3cc1S2` [Compound 10, 8-Chloro-6-(2-(piperidin-1-yl)ethyl)-quino[3,2-b]benzo[1,4]thiazine], the minimal inhibitory concentration (MIC) (in the experiment on S. aureus ATCC 6538; in the experiment with E. coli ATCC 25922; in the experiment on S. aureus ATCC 25923; in experiment [1]; with S. aureus NCTC 4163; in the experiment with P. aeruginosa ATCC 15442) was > 256 µg/mL in each case. Besides, the MIC (in experiment [2]; in the experiment with S. aureus ATCC 29213) was > 256 µg/mL in each case. In addition, the IC50 in the experiment with A549 (lung cancer) (Homo sapiens, A549) was 63.8 ± 8.5 µM; in experiment [3] (Homo sapiens, HaCaT) it was > 100 µM; in [4] (Homo sapiens, MDA-MB-231), > 100 µM. Also, the “SI A549” value in the experiment on A549 (lung cancer) is on record as 1.6. In experiment [4], the “SI MDA” value is 1.0.
For `CC(=O)NCCCN1c2cc(Cl)ccc2Sc2cc3ccccc3nc21` [Compound 16, N-(3-(8-Chloroquino[3,2-b]benzo[1,4]thiazin-6-yl)propyl)acetamide], the minimum inhibitory concentration (MIC) (in the experiment with S. aureus ATCC 6538; with E. coli ATCC 25922; with S. aureus ATCC 25923; in experiment [1]; in the experiment with S. aureus NCTC 4163; in the experiment with P. aeruginosa ATCC 15442) was > 256 µg/mL in each case. Also, the minimum inhibitory concentration (MIC) (in experiment [2]; in the experiment on S. aureus ATCC 29213) was > 256 µg/mL in each case. The IC50 is 24.6 ± 6.1 µM in the experiment on A549 (lung cancer) (Homo sapiens, A549); > 100 µM in experiment [3] (Homo sapiens, HaCaT); 76.6 ± 8.9 µM in [4] (Homo sapiens, MDA-MB-231). Besides, the “SI A549” value with A549 (lung cancer) was 4.1. The “SI MDA” value in experiment [4] amounted to 1.3.
